“Also recorded” adds a separate entry of the source.
How the values were obtained:
[1] = molecular target: T1, rat brain type IIA sodium channels (F1489Q α subunit + wild-type β1) (Rattus norvegicus, UniProt P04775, F1489Q/N209D); format: biochemical, rat (expressed in Xenopus laevis oocytes)
[2] = molecular target: T1, rat brain type IIA sodium channels (F1489Q α subunit + wild-type β1); format: biochemical, rat (expressed in Xenopus laevis oocytes); remark: listed apart in the source
[3] = system: cardiac sodium channel with mutations in M1651 and M1652; settings: whole-cell recording, ref Tang et al. (1996), cited from earlier work
[4] = system: sodium channels; settings: ref Eaholtz et al., 1994, cited from earlier work

T1 sequence (P04775 whole entry N209D/F1489Q): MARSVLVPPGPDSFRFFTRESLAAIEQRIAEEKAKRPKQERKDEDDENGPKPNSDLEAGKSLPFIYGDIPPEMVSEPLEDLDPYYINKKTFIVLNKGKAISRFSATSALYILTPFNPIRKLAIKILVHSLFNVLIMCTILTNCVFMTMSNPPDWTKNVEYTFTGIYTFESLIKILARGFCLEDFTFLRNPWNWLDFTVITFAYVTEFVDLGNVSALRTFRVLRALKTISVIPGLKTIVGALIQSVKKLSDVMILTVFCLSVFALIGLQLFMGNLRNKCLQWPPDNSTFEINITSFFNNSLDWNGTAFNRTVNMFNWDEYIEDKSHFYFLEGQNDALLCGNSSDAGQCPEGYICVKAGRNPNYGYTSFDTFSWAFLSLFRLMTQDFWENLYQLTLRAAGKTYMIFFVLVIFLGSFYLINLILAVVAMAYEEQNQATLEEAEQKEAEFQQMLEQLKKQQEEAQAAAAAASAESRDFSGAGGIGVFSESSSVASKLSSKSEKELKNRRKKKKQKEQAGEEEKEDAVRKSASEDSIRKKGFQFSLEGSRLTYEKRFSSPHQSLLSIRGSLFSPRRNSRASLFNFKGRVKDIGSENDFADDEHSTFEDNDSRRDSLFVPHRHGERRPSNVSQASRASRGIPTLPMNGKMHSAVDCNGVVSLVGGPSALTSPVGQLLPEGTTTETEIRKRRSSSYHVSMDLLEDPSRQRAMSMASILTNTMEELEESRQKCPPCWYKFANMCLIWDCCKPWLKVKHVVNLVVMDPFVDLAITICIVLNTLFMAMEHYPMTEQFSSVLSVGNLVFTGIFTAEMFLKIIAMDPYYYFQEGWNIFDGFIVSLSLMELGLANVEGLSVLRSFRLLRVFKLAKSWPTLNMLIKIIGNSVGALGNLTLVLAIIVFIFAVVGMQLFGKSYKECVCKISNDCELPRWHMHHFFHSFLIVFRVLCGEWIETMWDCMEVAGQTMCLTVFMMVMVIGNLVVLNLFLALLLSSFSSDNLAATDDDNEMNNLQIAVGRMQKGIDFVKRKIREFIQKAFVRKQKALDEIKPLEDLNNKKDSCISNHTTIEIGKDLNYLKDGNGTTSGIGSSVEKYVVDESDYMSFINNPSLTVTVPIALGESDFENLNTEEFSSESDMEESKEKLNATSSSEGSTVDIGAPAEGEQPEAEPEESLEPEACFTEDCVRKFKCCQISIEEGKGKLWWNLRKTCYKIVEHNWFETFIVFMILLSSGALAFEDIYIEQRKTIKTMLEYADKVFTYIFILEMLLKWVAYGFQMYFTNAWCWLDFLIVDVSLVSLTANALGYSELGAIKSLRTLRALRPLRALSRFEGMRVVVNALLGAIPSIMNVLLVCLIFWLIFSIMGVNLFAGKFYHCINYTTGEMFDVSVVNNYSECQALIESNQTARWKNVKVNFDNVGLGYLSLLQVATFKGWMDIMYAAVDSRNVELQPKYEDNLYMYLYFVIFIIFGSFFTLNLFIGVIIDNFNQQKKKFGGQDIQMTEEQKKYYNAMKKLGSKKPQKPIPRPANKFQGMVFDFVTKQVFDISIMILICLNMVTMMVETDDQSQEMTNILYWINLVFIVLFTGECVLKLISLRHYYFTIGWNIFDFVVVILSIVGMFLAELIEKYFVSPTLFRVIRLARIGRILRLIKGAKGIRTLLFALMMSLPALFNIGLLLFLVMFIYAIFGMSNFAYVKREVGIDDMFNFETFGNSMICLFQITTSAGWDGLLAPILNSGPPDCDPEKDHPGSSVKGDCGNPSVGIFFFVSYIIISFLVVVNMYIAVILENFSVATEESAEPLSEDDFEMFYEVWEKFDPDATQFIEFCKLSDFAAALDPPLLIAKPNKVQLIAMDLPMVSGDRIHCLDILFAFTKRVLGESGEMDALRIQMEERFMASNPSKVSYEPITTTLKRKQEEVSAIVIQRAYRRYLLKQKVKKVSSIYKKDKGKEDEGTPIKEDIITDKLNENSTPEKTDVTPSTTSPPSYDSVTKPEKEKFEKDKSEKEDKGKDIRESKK
T1 sequence (Q00954 19-218 partner): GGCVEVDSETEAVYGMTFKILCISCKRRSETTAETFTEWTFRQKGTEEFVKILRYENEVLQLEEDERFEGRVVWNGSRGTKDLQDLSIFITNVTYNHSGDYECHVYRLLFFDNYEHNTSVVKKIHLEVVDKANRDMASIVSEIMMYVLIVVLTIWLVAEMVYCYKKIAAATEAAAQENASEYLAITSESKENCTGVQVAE

SMILES: CC[C@H](C)[C@H](NC(=O)[C@H](CCCCN)NC(C)=O)C(=O)N[C@@H](Cc1ccccc1)C(=O)N[C@@H](CCSC)C(=O)N[C@@H](CCCCN)C(N)=O [KIFMK, acetyl-KIFMK-NH2]
- block of the steady state sodium current ([1]; 100 μM KIFMK, voltage step from −100 to 0 mV): > 70%
- koff ([1]; read-out: unblocking rate k u (= k off)): 342 ± 21 s⁻¹
- shift of the I-V relationship ([2]; 100 μM KIFMK compared with no peptide control, test voltages −80 to 110 mV): negative shift of the I-V relationship
- voltage dependence of unblocking (off) rates ([2]; 100 μM KIFMK, −30 to 30 mV): voltage independent; also recorded: not affected by voltage; also recorded: no voltage dependence
- mean unblocking rate k u over the voltage range ([2]; 100 μM KIFMK, −30 to 30 mV, mean ± SEM, n = 4): 336 ± 14 s⁻¹
- voltage constant of blocking rate fit, exp^(V/43 mV) ([2]; 100 μM KIFMK, e-fold factor of k b (Fig. 3 B) and k on (Scheme 1)): 43 mV
- extent of the electric field traversed by the lysine charges ([2]; if both charges enter the electric field to an equivalent extent): 30%
- K d from ratio of the on and off rates ([3]; outward sodium currents): ~30 µM
- dependence of the on rate on peptide concentration [3]: deviated significantly from linearity
- voltage dependence of block rate [3]: no voltage dependence of block rate was detected
- types of block ([4]; cytoplasmic application): a rapid block, which occurs in milliseconds and resembles inactivation in kinetics and voltage dependence, and a cumulative, use-dependent block, which occurs during repetitive high voltage pulses
- slow block [4]: slow block that occurs at voltages more depolarized than 0 mV
- state preference of block [4]: appears to preferentially block open channels
